The values that follow come from patent US20040248234A1, “Sensitive and selective in vitro assay for the detection of reactive drug intermediates” (Pfizer Inc, priority 2003, published 2004).

Like-named read-outs stand apart in the source and are kept apart here.

For data set [1] the following is noted: literature reports; cited from earlier work.
Data set [2] has as its system human liver microsomal (HL-mix-13).
For data set [3] the test system is unchanged. Conditions: 10 μM substrate, 1 mM GSH, 0.5 μM P450, NADPH generating system, HPLC/SRM.

Turning to `CC(=O)Nc1ccc(O)cc1` [Acetaminophen], the “formation of reactive species / reactive intermediates as reported” value in data set [1] is “have been reported to produce such species”.
Consider `CCN(CC)Cc1cc(Nc2ccnc3cc(Cl)ccc23)ccc1O` [Amodiaquine], for which the “Response observed using GSH-EE as trapping agent” value (“Response observed using GSH-EE” for short) in data set [2] is listed as “Yes”.
`NC(=O)N1c2ccccc2C=Cc2ccccc21` [Carbamazepine]: the “Response observed using GSH-EE” value in data set [2] was “Yes”.
The same measure, in the same setting: for `O=C(O)Cc1ccccc1Nc1c(Cl)cccc1Cl` [Diclofenac] the value was “Yes”; for `COc1ccc2c(c1)c(CC(=O)O)c(C)n2C(=O)c1ccc(Cl)cc1` [Indomethacin], “No”.
With `CN(CCOc1ccc(CC2SC(=O)NC2=O)cc1)c1ccccn1` (stereo not drawn) [Rosiglitazone], the “Response observed using GSH-EE” value in data set [2] is recorded as “Yes”.
Regarding `CC(=O)Oc1ccccc1C(=O)O` [aspirin], the “formation of reactive species / reactive intermediates as reported” value in data set [1] is “have not been reported to produce such reactive species”.
With Felbamate, the “Response observed using GSH-EE” value in data set [2] (10 μM substrate, 1 mM GSH-EE, 0.5 μM P450, NADPH generating system, HPLC/SRM) is “Yes (A response in the assay was deemed “yes” if there were no co-eluting species contained in control (blank) samples and analyte peak to signal ratio was >10)”. Besides, the “Response observed using GSH as trapping agent” value in data set [3] is listed as “No (A response in the assay was deemed “no” if the signal to noise ratio was <10)”.
